Measured values reported in the supplement of paper PMC10307832.

Legend:
Test in all cases: relative viability (nuclei count vs DMSO), 5 days (fraction); higher = more cells survive
ChaGo-K-1 = tested on: ChaGo-K-1
Method in brief: (§1)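 The day after seeding in 1536-well plates, lung cancer cell lines were treated by pin tool with a single drug, or with a fixed anchor-drug dose together with five library-drug doses (not always all listed) in √10 steps. After 5 days, a combined fix-and-stain solution (final 0.05% Triton X-100, 1% formaldehyde, 1 ug/ml Hoechst) was added. Nuclei counted on 4× images gave relative viability as treated counts over vehicle counts, reported as the median of duplicate plates.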

EMC-BAC-2 = tested on: EMC-BAC-2
Method in brief: as §1

LCLC-97TM1 = tested on: LCLC-97TM1
Method in brief: as §1

LXF-289 = tested on: LXF-289
Method in brief: as §1

NCI-H1651 = tested on: NCI-H1651
Method in brief: as §1

NCI-H1734 = tested on: NCI-H1734
Method in brief: as §1

NCI-H1915 = tested on: NCI-H1915
Method in brief: as §1

NCI-H1944 = tested on: NCI-H1944
Method in brief: as §1

NCI-H2023 = tested on: NCI-H2023
Method in brief: as §1

NCI-H2087 = tested on: NCI-H2087
Method in brief: as §1

NCI-H2126 = tested on: NCI-H2126
Method in brief: as §1

NCI-H2405 = tested on: NCI-H2405
Method in brief: as §1

NCI-H3122 = tested on: NCI-H3122
Method in brief: as §1

NCI-H322M = tested on: NCI-H322M
Method in brief: as §1

NCI-H441 = tested on: NCI-H441
Method in brief: as §1

NCI-H596 = tested on: NCI-H596
Method in brief: as §1

NCI-H650 = tested on: NCI-H650
Method in brief: as §1

NCI-H661 = tested on: NCI-H661
Method in brief: as §1

NCI-H838 = tested on: NCI-H838
Method in brief: as §1

PC-14 = tested on: PC-14
Method in brief: as §1

SW 1573 = tested on: SW 1573
Method in brief: as §1

UMC-11 = tested on: UMC-11
Method in brief: as §1

Nc1cccc2c1CN(C1CCC(=O)NC1=O)C2=O (stereo not given) [Lenalidomide] + C[C@@H](Oc1cc(-c2cnn(C3CCNCC3)c2)cnc1N)c1c(Cl)ccc(F)c1Cl [Crizotinib] (partner 1 µM)
relative viability (ChaGo-K-1; first compound 0.253 µM): 1.1
relative viability (ChaGo-K-1; first compound 2.53 µM): 1.31
relative viability (ChaGo-K-1; first compound 8 µM): 1.28
relative viability (EMC-BAC-2; first compound 0.253 µM): 0.721
relative viability (EMC-BAC-2; first compound 0.8 µM): 0.679
relative viability (EMC-BAC-2; first compound 2.53 µM): 0.815
relative viability (EMC-BAC-2; first compound 8 µM): 0.769
relative viability (LCLC-97TM1; first compound 0.8 µM): 0.511
relative viability (LCLC-97TM1; first compound 2.53 µM): 0.463
relative viability (LCLC-97TM1; first compound 8 µM): 0.305
relative viability (LXF-289; first compound 0.253 µM): 0.831
relative viability (LXF-289; first compound 0.8 µM): 0.836
relative viability (LXF-289; first compound 2.53 µM): 0.919
relative viability (LXF-289; first compound 8 µM): 0.983
relative viability (NCI-H1651; first compound 0.253 µM): 0.875
relative viability (NCI-H1651; first compound 0.8 µM): 0.884
relative viability (NCI-H1651; first compound 2.53 µM): 0.865
relative viability (NCI-H1651; first compound 8 µM): 0.861
relative viability (NCI-H1734; first compound 0.253 µM): 0.622
relative viability (NCI-H1734; first compound 0.8 µM): 0.654
relative viability (NCI-H1734; first compound 2.53 µM): 0.618
relative viability (NCI-H1734; first compound 8 µM): 0.597
relative viability (NCI-H1915; first compound 0.253 µM): 0.906
relative viability (NCI-H1915; first compound 0.8 µM): 0.88
relative viability (NCI-H1915; first compound 2.53 µM): 0.978
relative viability (NCI-H1915; first compound 8 µM): 0.952
relative viability (NCI-H1944; first compound 0.253 µM): 1.1
relative viability (NCI-H1944; first compound 0.8 µM): 1.1
relative viability (NCI-H1944; first compound 2.53 µM): 1.15
relative viability (NCI-H1944; first compound 8 µM): 1
relative viability (NCI-H2023; first compound 0.253 µM): 0.661
relative viability (NCI-H2023; first compound 0.8 µM): 0.785
relative viability (NCI-H2023; first compound 2.53 µM): 0.675
relative viability (NCI-H2023; first compound 8 µM): 0.596
relative viability (NCI-H2087; first compound 0.253 µM): 0.81
relative viability (NCI-H2087; first compound 0.8 µM): 0.896
relative viability (NCI-H2087; first compound 2.53 µM): 0.539
relative viability (NCI-H2087; first compound 8 µM): 0.928
relative viability (NCI-H2126; first compound 0.253 µM): 1.02
relative viability (NCI-H2126; first compound 0.8 µM): 1.02
relative viability (NCI-H2126; first compound 2.53 µM): 1.08
relative viability (NCI-H2126; first compound 8 µM): 0.993
relative viability (NCI-H2405; first compound 0.253 µM): 0.819
relative viability (NCI-H2405; first compound 0.8 µM): 0.858
relative viability (NCI-H2405; first compound 2.53 µM): 0.897
relative viability (NCI-H2405; first compound 8 µM): 0.791
relative viability (NCI-H3122; first compound 0.253 µM): 0.261
relative viability (NCI-H3122; first compound 0.8 µM): 0.286
relative viability (NCI-H3122; first compound 2.53 µM): 0.261
relative viability (NCI-H3122; first compound 8 µM): 0.258
relative viability (NCI-H322M; first compound 0.253 µM): 0.911
relative viability (NCI-H322M; first compound 0.8 µM): 0.9
relative viability (NCI-H322M; first compound 2.53 µM): 0.914
relative viability (NCI-H322M; first compound 8 µM): 0.996
relative viability (NCI-H441; first compound 0.253 µM): 0.612
relative viability (NCI-H441; first compound 0.8 µM): 0.693
relative viability (NCI-H441; first compound 2.53 µM): 0.726
relative viability (NCI-H441; first compound 8 µM): 0.778
relative viability (NCI-H596; first compound 0.253 µM): 1.1
relative viability (NCI-H596; first compound 0.8 µM): 0.912
relative viability (NCI-H596; first compound 2.53 µM): 1.08
relative viability (NCI-H596; first compound 8 µM): 0.938
relative viability (NCI-H650; first compound 0.253 µM): 0.755
relative viability (NCI-H650; first compound 2.53 µM): 0.863
relative viability (NCI-H650; first compound 8 µM): 0.809
relative viability (NCI-H661; first compound 0.253 µM): 0.972
relative viability (NCI-H661; first compound 0.8 µM): 0.898
relative viability (NCI-H661; first compound 2.53 µM): 0.905
relative viability (NCI-H661; first compound 8 µM): 0.973
relative viability (NCI-H838; first compound 0.253 µM): 0.847
relative viability (NCI-H838; first compound 0.8 µM): 0.954
relative viability (NCI-H838; first compound 2.53 µM): 0.914
relative viability (NCI-H838; first compound 8 µM): 0.913
relative viability (PC-14; first compound 0.253 µM): 0.904
relative viability (PC-14; first compound 0.8 µM): 0.857
relative viability (PC-14; first compound 2.53 µM): 0.905
relative viability (PC-14; first compound 8 µM): 0.914
relative viability (SW 1573; first compound 0.253 µM): 0.801
relative viability (SW 1573; first compound 0.8 µM): 0.844
relative viability (SW 1573; first compound 2.53 µM): 0.766
relative viability (SW 1573; first compound 8 µM): 0.772
relative viability (UMC-11; first compound 0.253 µM): 0.61
relative viability (UMC-11; first compound 0.8 µM): 0.573
relative viability (UMC-11; first compound 2.53 µM): 0.601
relative viability (UMC-11; first compound 8 µM): 0.644
